Test results reported in patent publication US20130157954A1, “METHODS FOR TREATMENT OR PROPHYLAXIS OF KIDNEY OR LIVER DYSFUNCTION” (NPS PHARMACEUTICALS, INC., priority 2010, published 2013).

Test: Example 2: liver biomarkers (albumin, gamma glutamyl transferase, total bilirubin, ALT, AST, ALP) in short bowel syndrome patients, every four weeks for 24 weeks; also sorted by >10% change from baseline
Format: in vivo, Human
Conditions: 0.05 mg/kg/d; for Alkaline Phosphatase: subjects Within 10% of Baseline / Alkaline Phosphatase: subjects with >10% decrease from Baseline / Alkaline Phosphatase: subjects with >10% increase from Baseline / Bilirubin: subjects Within 10% of Baseline / Bilirubin: subjects with >10% decrease from Baseline / Bilirubin: subjects with >10% increase from Baseline / ALT: subjects Within 10% of Baseline / ALT: subjects with >10% decrease from Baseline / ALT: subjects with >10% increase from Baseline / AST: subjects Within 10% of Baseline / AST: subjects with >10% decrease from Baseline / AST: subjects with >10% increase from Baseline / Albumin: subjects Within 10% of Baseline / Albumin: subjects with >10% decrease from Baseline / Albumin: subjects with >10% increase from Baseline: m = 38
Protocol: To further confirm the results of Example 1, a further study was conducted involving more individuals and additional diagnostic biomarkers. Human patients with short bowel syndrome were divided into two groups: a control group (43 total individuals) to receive placebo, and an experimental group (42 total individuals) to receive teduglutide at 0.05 mg/kg/day throughout the study. Patients were treated by subcutaneous injection of placebo or the appropriate dose of teduglutide. Known biomarkers of liver function were monitored every four weeks, for 24 weeks. The liver biomarkers tested included albumin, gamma glutamyl transferase, total bilirubin, ALT and AST and ALP. Before administration of placebo or teduglutide, diagnostic biomarker levels were tested to establish a baseline for each individual.
To determine the effect of GLP-2 on the levels of the diagnostic biomarkers, the average level of each biomarker was measured for the placebo and teduglutide treated groups for each visit. Furthermore, the average change from baseline was calculated using the established baseline values. For FIGS. 17-28, p-values were calculated using the t-test.
P values are provided, which were calculated for each distribution of biomarker changes for each week using the chi-squared test.

## CC[C@H](C)[C@H](NC(=O)[C@H](Cc1ccccc1)NC(=O)[C@H](CC(=O)O)NC(=O)[C@H](CCCNC(=N)N)NC(=O)[C@H](C)NC(=O)[C@H](C)NC(=O)[C@H](CC(C)C)NC(=O)[C@H](CC(N)=O)NC(=O)[C@H](CC(=O)O)NC(=O)[C@H](CC(C)C)NC(=O)[C@@H](NC(=O)[C@@H](NC(=O)[C@H](CC(N)=O)NC(=O)[C@H](CCSC)NC(=O)[C@H](CCC(=O)O)NC(=O)[C@H](CC(=O)O)NC(=O)[C@H](CO)NC(=O)[C@H](Cc1ccccc1)NC(=O)[C@H](CO)NC(=O)CNC(=O)[C@H](CC(=O)O)NC(=O)CNC(=O)[C@@H](N)Cc1c[nH]cn1)[C@@H](C)O)[C@@H](C)CC)C(=O)N[C@@H](CC(N)=O)C(=O)N[C@@H](Cc1c[nH]c2ccccc12)C(=O)N[C@@H](CC(C)C)C(=O)N[C@H](C(=O)N[C@@H](CCC(N)=O)C(=O)N[C@H](C(=O)N[C@@H](CCCCN)C(=O)N[C@H](C(=O)N[C@H](C(=O)N[C@@H](CC(=O)O)C(=O)O)[C@@H](C)O)[C@@H](C)CC)[C@@H](C)O)[C@@H](C)CC [teduglutide]
Week 16
  Alkaline Phosphatase: subjects Within 10% of Baseline: 7 (18.4%) n (%)
  Alkaline Phosphatase: subjects with >10% decrease from Baseline: 23 (60.5%) n (%)
  Alkaline Phosphatase: subjects with >10% increase from Baseline: 8 (21.1%) n (%)
  Bilirubin: subjects Within 10% of Baseline: 5 (13.2%) n (%)
  Bilirubin: subjects with >10% decrease from Baseline: 24 (63.2%) n (%)
  Bilirubin: subjects with >10% increase from Baseline: 9 (23.7%) n (%)
Week 20
  ALT Change from Baseline, Max: 24 U/L
  ALT Change from Baseline, Median: −6.5 U/L
  ALT Change from Baseline, Min: −55 U/L
  ALT Observed Value, Max: 149 U/L
  ALT Observed Value, Min: 5 U/L
  AST Change from Baseline, Max: 10 U/L
  AST Change from Baseline, Mean: −4.2 U/L
  AST Change from Baseline, Median: −2.5 U/L
  AST Change from Baseline, Min: −38 U/L
  AST Observed Value, Max: 77 U/L
  AST Observed Value, Min: 10 U/L
  Albumin Change from Baseline, Max: 4 g/L
  Albumin Change from Baseline, Mean: -0.6 g/L
  Albumin Change from Baseline, Median: -1 g/L
  Albumin Change from Baseline, Min: -8 g/L
  Albumin Observed Value, Max: 49 g/L
  Albumin Observed Value, Median: 43 g/L
  Albumin Observed Value, Min: 33 g/L
  Alkaline Phosphatase Change from Baseline, Max: 77 U/L
  Alkaline Phosphatase Change from Baseline, Min: −117 U/L
  Alkaline Phosphatase Observed Value, Max: 303 U/L
  Alkaline Phosphatase Observed Value, Min: 54 U/L
  Bilirubin Change from Baseline, Max: 2.8 µmol/L
  Bilirubin Change from Baseline, Median: -1.7 µmol/L
  Bilirubin Change from Baseline, Min: -25.5 µmol/L
  Bilirubin Observed Value, Max: 31.9 µmol/L
  Bilirubin Observed Value, Min: 3.7 µmol/L
  Gamma Glutamyl Transferase Change from Baseline, Max: 57 U/L
  Gamma Glutamyl Transferase Change from Baseline, Mean: −9.6 U/L
  Gamma Glutamyl Transferase Change from Baseline, Median: −8 U/L
  Gamma Glutamyl Transferase Change from Baseline, Min: −146 U/L
  Gamma Glutamyl Transferase Observed Value, Max: 261 U/L
  Gamma Glutamyl Transferase Observed Value, Min: 8 U/L
  ALT: subjects Within 10% of Baseline: 10 (26.3%) n (%)
  ALT: subjects with >10% decrease from Baseline: 23 (60.5%) n (%)
  ALT: subjects with >10% increase from Baseline: 5 (13.2%) n (%)
  AST: subjects Within 10% of Baseline: 11 (28.9%) n (%)
  AST: subjects with >10% decrease from Baseline: 20 (52.6%) n (%)
  AST: subjects with >10% increase from Baseline: 7 (18.4%) n (%)
  Albumin: subjects Within 10% of Baseline: 37 (97.4%) n (%)
  Albumin: subjects with >10% decrease from Baseline: 1 (2.6%) n (%)
  Albumin: subjects with >10% increase from Baseline: 0 n (%)
  Alkaline Phosphatase: subjects Within 10% of Baseline: 12 (31.6%) n (%)
  Alkaline Phosphatase: subjects with >10% decrease from Baseline: 23 (60.5%) n (%)
  Alkaline Phosphatase: subjects with >10% increase from Baseline: 3 (7.9%) n (%)
  Bilirubin: subjects Within 10% of Baseline: 5 (13.2%) n (%)
  Bilirubin: subjects with >10% decrease from Baseline: 25 (65.8%) n (%)
  Bilirubin: subjects with >10% increase from Baseline: 8 (21.1%) n (%)
Week 24
  ALT Change from Baseline, Max: 21 U/L
  ALT Change from Baseline, Median: −7.5 U/L
  ALT Change from Baseline, Min: −60 U/L
  ALT Observed Value, Max: 91 U/L
  ALT Observed Value, Min: 7 U/L
  AST Change from Baseline, Max: 14 U/L
  AST Change from Baseline, Mean: −5.8 U/L
  AST Change from Baseline, Median: −5 U/L
  AST Change from Baseline, Min: −47 U/L
  AST Observed Value, Max: 73 U/L
  AST Observed Value, Median: 23 U/L
  AST Observed Value, Min: 11 U/L
  Albumin Change from Baseline, Max: 3 g/L
  Albumin Change from Baseline, Mean: -0.4 g/L
  Albumin Change from Baseline, Median: 0 g/L
  Albumin Change from Baseline, Min: -8 g/L
  Albumin Observed Value, Max: 48 g/L
  Albumin Observed Value, Median: 42 g/L
  Albumin Observed Value, Min: 33 g/L
  Alkaline Phosphatase Change from Baseline, Max: 33 U/L
  Alkaline Phosphatase Change from Baseline, Min: −122 U/L
  Alkaline Phosphatase Observed Value, Max: 328 U/L
  Alkaline Phosphatase Observed Value, Median: 88 U/L
  Alkaline Phosphatase Observed Value, Min: 49 U/L
  Bilirubin Change from Baseline, Max: 3.3 µmol/L
  Bilirubin Change from Baseline, Min: -26.1 µmol/L
  Bilirubin Observed Value, Max: 31.3 µmol/L
  Bilirubin Observed Value, Median: 6.8 µmol/L
  Bilirubin Observed Value, Min: 2.5 µmol/L
  Gamma Glutamyl Transferase Change from Baseline, Max: 46 U/L
  Gamma Glutamyl Transferase Change from Baseline, Median: −6 U/L
  Gamma Glutamyl Transferase Change from Baseline, Min: −144 U/L
  Gamma Glutamyl Transferase Observed Value, Max: 228 U/L
  Gamma Glutamyl Transferase Observed Value, Min: 7 U/L
  ALT: subjects Within 10% of Baseline: 10 (26.3%) n (%)
  ALT: subjects with >10% decrease from Baseline: 24 (63.2%) n (%)
  ALT: subjects with >10% increase from Baseline: 4 (10.5%) n (%)
  AST: subjects Within 10% of Baseline: 8 (21.1%) n (%)
  AST: subjects with >10% decrease from Baseline: 24 (63.2%) n (%)
  AST: subjects with >10% increase from Baseline: 6 (15.8%) n (%)
  Albumin: subjects Within 10% of Baseline: 36 (94.7%) n (%)
  Albumin: subjects with >10% decrease from Baseline: 2 (5.3%) n (%)
  Albumin: subjects with >10% increase from Baseline: 0 n (%)
  Alkaline Phosphatase: subjects Within 10% of Baseline: 9 (23.7%) n (%)
  Alkaline Phosphatase: subjects with >10% decrease from Baseline: 23 (60.5%) n (%)
  Alkaline Phosphatase: subjects with >10% increase from Baseline: 6 (15.8%) n (%)
  Bilirubin: subjects Within 10% of Baseline: 6 (15.8%) n (%)
  Bilirubin: subjects with >10% decrease from Baseline: 26 (68.4%) n (%)
  Bilirubin: subjects with >10% increase from Baseline: 6 (15.8%) n (%)
